According to article PMC11304990, “Identification of mitochondrial ATP synthase as the cellular target of Ru-polypyridyl-β-carboline complexes by affinity-based protein profiling” (National Science Review, 2024):

Columns and labels:
ATP5F1 = experiment: Cellular thermal shift assay (CETSA); assay type: cell-based; settings: 10 μM
Procedure: Figure 1. Validation of ATP5F1 as the molecular target of Ru5. (A) Proteins pulled down by streptavidin from A549 cells treated with Ru5a followed by PAL. The cells were treated with Ru5a (50 μM) for 12 h and irradiated with UV light for 20 min. (B) The top five peptides enriched by Ru5a-mediated PAL were identified with the assistance of SILAC-based chemoproteomic studies. H1F0: H1 histone family member 0; HIST4H4: histone cluster 4 H4; HIST3H2BB: histone cluster 3 H2B family member b; ATP5F1E: ATP synthase F1 subunit epsilon; HIST1H2AJ: histone cluster 1 H2A family member J. (C) Pull-down western blotting analysis of ATPase in A549 cells treated with Ru5a. (D) Cellular Ru content in cells treated with Ru5/Ru5a (20 μM, 12 h) measured by ICP-MS. (E) Impact of Ru5/Ru5a (10 μM) on the thermal stability of ATP5F1 measured by CETSA. (F) Impact on the anticancer activities of Ru5/Ru5a against wild type and ATPase knocking down (by siRNA) A549 cells. The relative cellular viability was calculated using the cells without drug treatment in each group as the control group. (G) Inhibition of Ru5/Ru5a on the enzymatic activity of ATPase. (-)-blebbistatin was used as the positive control. (H) Molecular docking of Ru5 with ATPase (PDB: 3ZIA). The red dashes indicate the hydrogen bonds formed between Ru5 and the amino acid residues (SER38 and GLN39). […]

[1] = Aqueous solubility by concentration-absorbance linearity; assay type: physicochemical; settings: PBS with 1% DMSO
Source text: Subsequently, the lipophilicity and aqueous solubility of Ru1–Ru9 were investigated.

A549 xenograft = A549 xenograft nude mice model; assay type: in vivo
Procedure: Lastly, the in vivo anticancer activity of Ru5 was assessed via a A549 xenograft nude mice model (Fig. 5A). Mice were treated with PBS, cisplatin (5 mg kg^−1) or Ru5 (5 mg kg^−1) for 14 days, during which body weights and tumor volumes were monitored.
Figure 5. […] (A) Schematic illustration of in vivo therapeutic protocol. (B) Graphs of tumor volumes of nude mice after treatment with Ru5 (5 mg kg^−1), cisplatin (5 mg kg^−1) and PBS. The intratumoral injections were performed every 7 days. Data are presented as means ± SD, n = 5. (C) Immunohistochemical analysis of hematoxylin-eosin (H&E) staining in tumor sections from mice with different treatments. Scale bar: 50 μm. (D) Tumors separated from nude mice. (E) The average body weight of the mice in each group during the treatment process. Data are presented as means ± SD, n = 5. (F) H&E staining of the main organs from mice with different treatments. Scale bar: 100 μm.

malignant glioma (U87) = experiment: MTT antiproliferative assay, U87; assay type: cell-based, human; settings: 72 h
Source text: (§1) Ru3–Ru9 also show a certain selectivity for cancer cells over normal cells, and Ru2, Ru3, Ru5 and Ru9 show higher selectivity index (SI) values than the other complexes.
(§2) PA-BPP was then used to confirm the molecular targets of Ru5 by modifying it with a ‘minimalist’ biorthogonal handle-containing photo-cross-linker. Through our structure–activity relationship analysis and comparison with other ruthenium complexes utilizing phen as the auxiliary ligands with similar coordination structures (using cisplatin as a control), we propose that the β-carboline ligands play an important role in antiproliferative activity. To maintain the binding characteristics of the β-carboline moiety with the targeted biomolecules, we linked the photo-cross-linker to one of the auxiliary ligands of Ru5.

[2] = system: cisplatin-resistant A549R; experiment: MTT antiproliferative assay, A549R; assay type: cell-based, human; settings: 72 h
Source text: as §1, §2

[3] = system: triple negative breast cancer (MDA-MB-231); experiment: MTT antiproliferative assay, MDA-MB-231; assay type: cell-based, human; settings: 72 h
Source text: as §1, §2

[4] = system: human lung fibroblast-like (HLF) cells; experiment: MTT antiproliferative assay, HLF; assay type: cell-based; settings: 72 h
Source text: as §1, §2

In the case of `F[P-](F)(F)(F)(F)F.F[P-](F)(F)(F)(F)F.[Ru+2].c1ccc2c(c1)[nH]c1c(-c3ncc[nH]3)nccc12.c1cnc2c(c1)ccc1cccnc12.c1cnc2c(c1)ccc1cccnc12` [Ru5], the “Thermal stability of ATP5F1” value (ATP5F1) is reported as “increased”, the “Linear relationship between absorbance and concentration up to” value [1] is reported as “at least 100 μM” and the Body weight loss (A549 xenograft; 5 mg kg−1, 14 days) is reported as “no significant body weight loss”. For the same molecule, the “Organ damage (H&E staining of the main organs)” value (A549 xenograft; 5 mg kg−1, 14 days) was “no significant”, the “Tumor inhibition compared with cisplatin and PBS” value (A549 xenograft; 5 mg kg−1, 14 days) was “better tumor inhibition” and the “Tumor growth inhibitory rate” value (A549 xenograft; 5 mg kg−1, intratumoral injection every 7 days, 14 days, compared with the control groups) was roughly 89.6%. It also gave an IC50 (malignant glioma (U87)) of 14.7 ± 0.7 µM, an IC50 [2] of 3.3 ± 0.7 µM and an IC50 [3] of 7.7 ± 0.2 µM. For the same molecule, the IC50 [4] was 33.9 ± 0.2 µM.
